Measurements reported in patent US20090209474A1, “NOVEL USES FOR DRUGS TARGETING GLUTAMINE SYNTHETASE” (NEWTHERA, priority 2005, published 2009).
Like-named read-outs stand apart in the source and are kept apart here. Residues, ends and D or L forms follow the SMILES beside them.

Assays:
GS (sheep brain) = conditions: cited from earlier work
[1] = tested on: glutamate metabotropic receptor; conditions: cited from earlier work
GS (rat liver) = GS (rat liver) (Rattus norvegicus, UniProt P09606); conditions: cited from earlier work
GS [2] = target: GS (Rattus norvegicus, UniProt P09606); format: in vivo, Wistar rats; design: Wistar rat brain homogenates were incubated with naftazone; from tissue; host or cells: Wistar rat brain homogenate or membranes; in A19 also liver and lungs; conditions: one hour after PTZ 50 mg/kg i.p.
GS [3] = conditions: cited from earlier work
[4] = Adrenal weight in corticosterone-administered rats; format: in vivo, Wistar rats
Wistar rat brain GS = target: T1, Wistar rat brain GS (Rattus norvegicus, UniProt P09606); test: GS activity in Wistar rat brain homogenates; format: biochemical; conditions: in absence of 2β-ME
T1 construct: from tissue; host or cells: Wistar rat brain homogenate or membranes; in A19 also liver and lungs
Protocol: GS activity was assessed as mentioned above for purified sheep brain GS.

Wistar rats [5] = test: PTZ-induced seizures; format: in vivo; conditions: rat, in vivo
Wistar rats [6] = test: Forced swimming test in corticosterone-administered rats; format: in vivo
Wistar rats [7] = test: Open field task in corticosterone-administered rats; format: in vivo; conditions: day 15, corticosterone 35 mg/kg s.c.; versus PCB and Control
purified sheep brain GS = test: Purified sheep brain GS activity (Meister's method, gamma-glutamylhydroxamate formation); format: biochemical

Chain of GS (rat liver) (P09606 2-373 limits assumed): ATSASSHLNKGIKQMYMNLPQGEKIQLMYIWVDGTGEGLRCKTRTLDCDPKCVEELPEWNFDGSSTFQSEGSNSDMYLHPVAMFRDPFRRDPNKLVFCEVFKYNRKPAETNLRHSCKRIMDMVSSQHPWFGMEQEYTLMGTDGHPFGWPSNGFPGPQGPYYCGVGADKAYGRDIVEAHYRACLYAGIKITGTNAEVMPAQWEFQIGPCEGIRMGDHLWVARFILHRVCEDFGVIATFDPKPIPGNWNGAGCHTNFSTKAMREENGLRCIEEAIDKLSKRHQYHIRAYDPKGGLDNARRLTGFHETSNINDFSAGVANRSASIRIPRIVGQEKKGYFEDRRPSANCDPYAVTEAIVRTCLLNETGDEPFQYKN
T1 sequence (P09606 2-373 limits assumed): as above
Chain of GS (Rattus norvegicus, UniProt P09606) (P09606 2-373 limits assumed): as above

For `NC1(C(=O)O)CCCC(P(=O)(O)O)C1` (stereo not shown) [Cyclohexane phosphinothricin, 1-Amino-3-phosphono-cyclohexane-carboxylic acid], the Ki (GS (sheep brain)) is listed as 125 µM.
For `N[C@H](C(=O)O)c1cc(=O)[nH]o1` [Ibotenic acid], the “activity at glutamate metabotropic receptors in words” value (from here on “activity … in words”) [1] is given as “Glutamate metabotropic receptor agonist Johnston, 1968”.
In the case of `CC(N)(CCP(=O)(O)O)C(=O)O` (stereo not shown) [2-Amino-2-methyl-4-phosphono butanoic acid], the Ki (GS (rat liver)) is given as 6300 µM.
In the case of `C[C@@](N)(CCP(=O)(O)O)C(=O)O` [2-Amino-2-methyl-4-phosphono-butyric acid], the “activity … in words” value [1] is given as “Selective mGlu3 glutamate metabotropic receptor antagonist Sekiyama et al., 1996”.
For `C1CCc2nnnn2CC1` [PTZ, pentylenetetrazole], the “GS activity in the cortex, hippocampus and thalamus” value (GS [2]) was “low”.
In the case of `N[C@@H](CSS(=O)(=O)[O-])C(=O)O.[Na+]` [S-Sulfo-L-cysteine sodium salt], the “activity … in words” value [1] is given as “mGlu1a and mGlu5a glutamate metabotropic receptor agonist Mewett et al., 1983”.
In the case of `Cc1cc(C(=O)O)ccc1[C@H](N)C(=O)O` [(S)-(+)-Amino-4-carboxy-2-methylbenzeneacetic acid], the “activity … in words” value [1] is listed as “Selective mGlu1a glutamate metabotropic receptor antagonist Clarke et al., 1997”.
For `N[C@H](C(=O)O)[C@@H]1[C@@H](C(=O)O)C1(F)F` [(2S,1′S,2′S)-2-(2′-Carboxy-3′,3′-difluorocyclopropyl)glycine], the “activity … in words” value [1] is listed as “Glutamate metabotropic receptor agonist Shinozaki et al., 1996”.
In the case of `NC(CCP(=O)(O)O)C(=O)O` (stereo not shown) [2-Amino-4-phosphono butanoic acid], the Ki (GS (rat liver)) is listed as 880 µM.
In the case of `C[C@@](N)(CCS(C)(=N)=O)C(=O)O` (stereo partly drawn) [Alpha-methyl methionine sulfoximine], the “GS inhibition in words” value (GS [3]) is given as “Slightly less inhibitory synthetic MS derivative Eisenberg et al., 2000”.
For `C[C@]12C[C@H](O)[C@H]3[C@@H](CCC4=CC(=O)CC[C@@]43C)[C@@H]1CC[C@@H]2C(=O)CO` [corticosterone], the adrenal weight ([4]; repeated administration of corticosterone) was “decreased the adrenal weight”.
In the case of `O=C(O)[C@@H]1C[C@@H](C(=O)O)N1` (relative stereo) [Trans-Azetidine-2,4-dicarboxylic acid], the “activity … in words” value [1] is given as “Group I selective glutamate metabotropic receptor agonist. (activates mGlu1 and mGlu5) Kozikowski et al., 1993”.
In the case of `CC(N)(CCP(C)(=O)O)C(=O)O` (stereo not drawn) [Alpha-methyl phosphinothricin], the Ki (GS (sheep brain)) is given as 125 µM.
For `Cc1ccc(O)c(/N=N/c2ccccc2)n1` [6-Methyl-2-(phenylazo)-3-pyridinol], the “activity … in words” value [1] is given as “Selective mGlu5 glutamate metabotropic receptor antagonist Varney et al., 1999”.
For `N[C@@H](CCS(=O)(=O)CP(=O)(O)O)C(=O)O` [s-Phosphonomethyl homocysteine sulfone], the Ki (GS [3]) is given as 1400 µM.
For `CC(CC(N)C(=O)O)P(C)(=O)O` (stereo not shown) [Gamma methyl phosphinothricin], the Ki (GS (sheep brain)) is listed as 407 µM.
In the case of `NC(C(=O)O)c1cc(O)cc(O)c1` (racemic) [(RS)-3,5-Dihydroxyphenylglycine], the “activity … in words” value [1] is listed as “Group I selective glutamate metabotropic receptor agonist (activates mGlu1 and mGlu5) Schoepp et al., 1994”.
In the case of `[Sr+2]` [strontium], the “maximum decrease of GS activity” value (Wistar rat brain GS; at 10^−10 M) is reported as 75%.
For `CS(=O)(=O)CC[C@H](N)C(=O)O` [Methionine sulfone], the “GS inhibition in words” value (GS [3]) is listed as “Very potent ATP-dependent inhibitor of GS activity in a number of species. First discovered in nitrogen chloride treated zein. Eisenberg et al., 2000”.
For `N[C@@]1(C(=O)O)CC[C@H](C(=O)O)C1` [1-Aminocyclopentane-cis-1,3-dicarboxylic acid], the “activity … in words” value [1] is listed as “Group I/II glutamate metabotropic receptor agonist Olverman et al., 1983”.
In the case of `COC(=O)CCC(N)P(=O)(O)O` (stereo not shown) [Methyl 4-amino-4-phosphono butanate], the Ki (GS (rat liver)) is given as 2100 µM.
For `[Li]` [lithium, Li2CO3], the “maximum decrease of GS activity” value (Wistar rat brain GS; at 0.01 M) was 40%.
For `N[C@@H](CC[S+]([O-])CP(=O)(O)O)C(=O)O` (stereo partly shown) [s-Phosphonomethyl homocysteine sulfoxide], the “GS inhibition in words” value (GS [3]) is given as “Synthetic inhibitor Logusch et al., 1988 Eisenberg et at., 2000”.
For `CCC(N)(CCP(C)(=O)O)C(=O)O` (stereo not drawn) [Alpha-ethyl phosphinothricin], the Ki (GS (sheep brain)) is given as 111 µM.
For `CC1(/C=C/c2ccccc2)C=CC=CN1` (stereo not shown) [2-Methyl-2-(phenylethenyl)pyridine], the “activity … in words” value [1] is given as “Selective mGlu5 glutamate metabotropic receptor antagonist Varney et al., 1999”.
For `CC(=O)N[C@@H](CC(=O)O)C(=O)N[C@@H](CCC(=O)O)C(=O)O` [N-Acetyl-L-aspartyl-L-glutamic acid] (Ac-Asp-Glu-OH), the “activity … in words” value [1] is given as “Highly selective mGlu3 glutamate metabotropic receptor agonist Morris et al., 1965”.
For `CP(=O)(O)C(O)CC(N)C(=O)O` (stereo not shown) [Gamma-hydroxy phosphinothricin], the Ki (GS (sheep brain)) is given as 47 µM.
For `CP(=O)(O)C(N)CCC(=O)O` (stereo not shown) [4-Amino-4-(hydroxymethylphosphinyl) butanoic acid], the Ki (GS (rat liver)) is listed as 800 µM.
In the case of `COC(=O)C(CCP(=O)(O)O)C(=O)O` (stereo not shown) [2-Methoxycarbonyl-4-phosphono butanoic acid], the Ki (GS (rat liver)) is listed as 8700 µM.
For `NC(CCC(=O)O)P(=O)(O)O` (stereo not shown) [4-Amino-4-phosphono butanoic acid], the Ki (GS (rat liver)) is listed as 1300 µM.
In the case of `N[C@](CC1c2ccccc2Oc2ccccc21)(C(=O)O)[C@H]1C[C@@H]1C(=O)O` [(2S)-2-Amino-2-[(1S,2S)-2-carboxycycloprop-1-yl]-3-(xanth-9-yl) propanoic acid], the “activity … in words” value [1] is listed as “Highly potent mGlu2 glutamate metabotropic receptor antagonist Ornstein et al., 1998”.
In the case of `NC(C(=O)O)c1cccc(O)c1` (racemic) [(RS)-3-Hydroxyphenylglycine], the “activity … in words” value [1] is given as “Glutamate metabotropic receptor agonist Thomsen and Suzdak, 1993”.
For `N[C@@H](C[C@H](CCCC(c1ccccc1)c1ccccc1)C(=O)O)C(=O)O` [(4S)-4-(4,4-Diphenylbutyl)-L-glutamic acid], the “activity … in words” value [1] is listed as “Selective and competitive mGlu2 glutamate metabotropic receptor antagonist Wermuth et al., 1996”.
For `CN1c2ccccc2C(NCCCCCCC(=O)O)c2ccc(Cl)cc2S1(=O)=O` (stereo not shown) [tianeptine, 7-[(3-chloro-6,11-dihydro-6-methyl-dibenzo[c,f][1,2]thiazepin-11-yl)amino] heptanoic acid S,S-dioxide], the “dose of maximum effect on seizures” value (Wistar rats [5]) was 10 mg/kg, the “dose relation of the effect on seizures” value (Wistar rats [5]) was “U-shaped” and the adrenal weight ([4]; 21 days, versus PCB) was “higher”. For the same compound, the “immobility in the forced swimming test” value (Wistar rats [6]; GF 0.1 mg/kg, tianeptine 0.5 mg/kg) was “clear decrease in immobility”, the “immobility in the forced swimming test” value (Wistar rats [6]; day 19, corticosterone 35 mg/kg s.c., versus PCB and Control) was “comparable or lower” and the “resting time in the open field task” value (Wistar rats [7]) was “higher”.
For `CC(N)(CCC(=O)O)[PH](=O)CO` (stereo not shown) [4-Amino-4-(hydroxymethylphosphinyl)-4-methyl butanoic acid], the Ki (GS (rat liver); read-out: Ki) is listed as 9500 µM.
In the case of `N[C@]1(C(=O)O)CCc2cc(C(=O)O)ccc21` (racemic) [(RS)-1-Aminoindan-1,5-dicarboxylic acid], the “activity … in words” value [1] is listed as “mGlu1 glutamate metabotropic receptor antagonist Pellicciari et al.,1995”.
In the case of `NNC(=O)c1ccncc1` [isoniazid, Isoniazid], the “tested on GS activity: ligand or not” value (purified sheep brain GS) is reported as “GS ligands”.
In the case of “(2S,3S,4S)-2-Methyl-2-(carboxycyclopropyl)glycine”, the “activity … in words” value [1] is given as “mGlu2 glutamate metabotropic receptor antagonist Jane et al., 1994”.
